Series [1] in a line: Drug uptake in human T24 cell cytoplasm at 2 uM after 1 hr by Dil-C28 dye staining-based inverted microscopic analysis. Conditions: t-24, 1 h; call rule not given here. The series is classed as ADME.
Series [2] is described as follows: Drug uptake in human T24 cell cytoskeleton at 2 uM after 1 hr by Dil-C28 dye staining-based inverted microscopic analysis. The class given is ADME. Conditions: t-24, 1 h.

Our source for the Drug uptake values is ChEMBL document CHEMBL2046369, “Self-calibrating viscosity probes: design and subcellular localization” (Bioorg Med Chem, 2012).

Structures are written as SMILES.

For `COc1ccc2cc(C(=O)NCCOCCOCCOC(=O)/C(C#N)=C/c3ccc(N4CCCCC4)s3)c(=O)oc2c1`, in series [1], the Drug uptake entry is given as “Active”. `CCCCCCN(CCCCCC)c1ccc(/C=C(\C#N)C(=O)OCCCCCNC(=O)c2cc3ccc(OC)cc3oc2=O)s1`: in series [2], the Drug uptake result is given as “Active”.
